# Test results as given in patent publication US9096593B2, “Compounds and methods for kinase modulation, and indications therefor” (Plexxikon Inc., priority 2009, dated 2015).
# System: MV-4-11 cells
# Assay: MV-4-11 cell proliferation assay (ATPlite)
# Details: 3 days, read-out: Cell based (IC50 μM) MV-4-11 (Flt-3)
# Procedure: Compounds are assessed in a variety of cell based assays. For example BCR-FMS/BaF3, BCR-KIT/BaF3, M-NFS-60, M-07e, and BAC1.2F5 cell proliferation assays are used to assess inhibitory activity of Fms or Kit and MV-4-11 cell proliferation assay is used to assess inhibitory activity in Flt-3. Reagent and assay conditions are as follows: • BCR-FMS/BaF3 and BCR-KIT/BaF3 cells: • Maintained in RPMI containing 10% FBS, 1% PenStrep, 1% NEAA, and 1% L-Glutamine, supplemented with 1 mg/mL G418 and 5% WEHI-CM (or recombinant murine IL-3). • Confluent cells are split 1:50 to 1:100 every 3-4 days. • M-NFS-60 cells (ATCC #CRL-1838): • Maintained in RPMI containing 10% FBS, 1% Hepes, 1% NaPyruvate, and 0.45% Glucose, supplemented with 62 ng/mL murine M-CSF. • Confluent cells are split 1:20 every 3-4 days. • M-07e cells (DSMZ #ACC 104): • Maintained in IMDM containing 10% FBS, supplemented with either 200 ng/mL human SCF or […] SCF (R&D Systems 255-SC). • Confluent cells are split 1:5 to 1:10 every 3-4 days. • BAC1.2F5 cells: • Maintained in Alpha-MEM containing 10% Newborn Calf Serum (Invitrogen #26010-074) supplemented with 36 ng/mL murine M-CSF. • Confluent cells are split 1:4 every 3-4 days. • MV-4-11 cells: • Maintained in Iscove's Modified Dulbecco's Medium containing 10% FBS. • Confluent cells are split 1:4 every 3-4 days. On day 1, cells are counted, then centrifuged in a conical tube for 5 minutes at 1000 rpm. The supernatant is removed and cells are re-suspended as follows: • BCR-FMS/BaF3 and BCR-KIT/BaF3: resuspend in growth media+1 mg/mL G418 (without WEHI/IL-3) to 2×10^5 cells/mL. • M-NFS-60: resuspend in growth media +62 ng/mL murine M-CSF to 5×10^5 cells/mL. • M-07e: resuspend in growth media +200 ng/mL human SCF to 5×10^5 cells/mL. • BAC1.2F5: resuspend in growth media +36 ng/mL murine M-CSF to 1.4×10^5 cells/mL. • MV-4-11: resuspend in growth media +10% FBS to 5×10^5 cells/mL. The cells are plated (50 μL) in each well of a 96-well dish (Corning 3610) and incubated at 37° C. in 5% CO2 overnight, cells plated to a final concentration of cells as follows: • BCR-FMS/BaF3 and BCR-KIT/BaF3: 10,000 cells per well. • M-NFS-60: 25,000 cells per well. • M-07e: 25,000 cells per well. • BAC1.2F5: 7,000 cells per well. • MV-4-11: 25,000 cells per well. On day 2, compound at a maximum concentration of 5 mM is serially diluted 1:3 for a total of 8 point titration with DMSO as a control. A 1 μL aliquot of each dilution point is added to 249 μL growth media and 50 μL is added to a well containing cells, providing 10 μM compound for the maximum concentration point. The cells are incubated for 3 days at 37° C. in 5% CO2. On day 5, ATPlite 1 step Luminescence Assay System (Perkin Elmer #6016739) is brought to room temperature along with the cell cultures. ATPlite is added to each well as follows: • BCR-FMS/BaF3 and BCR-KIT/BaF3: 25 μL per well. • M-NFS-60: 25 μL per well. • M-07c: 40 μL per well. • BAC1.2F5: 50 μL per well. • MV-4-11: 40 μL per well. The cells are incubated at room temperature for 10 minutes, then luminescence is read on Safire reader. The measured luminescence correlates directly with cell number, such that the reading as a function of compound concentration is used to determine the IC50 value.
row,SMILES,IC50
1,Clc1cnc2[nH]cc(Cc3ccc(NCc4ccc(Cl)nc4)nc3)c2c1 [Compound P-2003],> 0.1 µM

# Same assay, conditions: Homo sapiens, MV4-11, 72 h, 3 days, read-out: Cell based (IC50 μM) MV-4-11 (Flt-3)
row,SMILES,IC50
1,"COc1ccc(CNc2ccc(Cc3c[nH]c4ncc(C)cc34)c(F)n2)cn1 [Compound P-2029, [6-Fluoro-5-(5-methyl-1H-pyrrolo[2,3-b]pyridin-3-ylmethyl)-pyridin-2-yl]-(6-methoxy-pyridin-3-ylmethyl)-amine]",< 0.1 µM
2,"COc1cnc2[nH]cc(Cc3ccc(NCc4ccc(OC)nc4)nc3F)c2c1 [Compound P-2030, [6-Fluoro-5-(5-methoxy-1H-pyrrolo[2,3-b]pyridin-3-ylmethyl)-pyridin-2-yl]-(6-methoxy-pyridin-3-ylmethyl)-amine]",< 0.1 µM
3,"Cc1cnc2[nH]cc(Cc3ccc(NCc4ccc(C(F)(F)F)nc4)nc3F)c2c1 [Compound P-2031, [6-Fluoro-5-(5-methyl-1H-pyrrolo[2,3-b]pyridin-3-ylmethyl)-pyridin-2-yl]-(6-trifluoromethyl-pyridin-3-ylmethyl)-amine]",< 0.1 µM
4,"COc1cnc2[nH]cc(Cc3ccc(NCc4ccc(Cl)cc4)nc3F)c2c1 [Compound P-2032, (4-Chloro-benzyl)-[6-fluoro-5-(5-methoxy-1H-pyrrolo[2,3-b]pyridin-3-ylmethyl)-pyridin-2-yl]-amine]",< 0.1 µM
5,"COc1cnc2[nH]cc(Cc3ccc(NCc4ccccc4Cl)nc3F)c2c1 [Compound P-2034, (2-chloro-benzyl)-[6-fluoro-5-(5-methoxy-1H-pyrrolo[2,3-b]pyridin-3-ylmethyl)-pyridin-2-yl]-amine]",> 0.1 µM
6,"COc1ccnc2[nH]cc(Cc3ccc(NCc4ccc(Cl)cc4)nc3F)c12 [Compound P-2037, (4-Chloro-benzyl)-[6-fluoro-5-(4-methoxy-1H-pyrrolo[2,3-b]pyridin-3-ylmethyl)-pyridin-2-yl]-amine]",> 0.1 µM
7,"COc1ccc(CNc2ncc(Cc3c[nH]c4ncc(Cl)cc34)cn2)cn1 [Compound P-2038, [5-(5-Chloro-1H-pyrrolo[2,3-b]pyridin-3-ylmethyl)-pyrimidin-2-yl]-(6-methoxy-pyridin-3-ylmethyl)-amine]",< 0.1 µM
8,"Fc1nc(NCc2ccc(Cl)cn2)ccc1Cc1c[nH]c2ncccc12 [Compound P-2044, (5-Chloro-pyridin-2-ylmethyl)-[6-fluoro-5-(1H-pyrrolo[2,3-b]pyridin-3-ylmethyl)-pyridin-2-yl]-amine]",< 0.1 µM
9,"COc1ccc(CNc2ncc(Cc3c[nH]c4ncc(C)cc34)cn2)cn1 [Compound P-2057, (6-Methoxy-pyridin-3-ylmethyl)-[5-(5-methyl-1H-pyrrolo[2,3-b]pyridin-3-ylmethyl)-pyrimidin-2-yl]-amine]",< 0.1 µM
10,"COc1ncc(CNc2ccc(Cc3c[nH]c4ncc(Cl)cc34)c(F)n2)cc1F [Compound P-2165, [5-(5-Chloro-1H-pyrrolo[2,3-b]pyridin-3-ylmethyl)-6-fluoro-pyridin-2-yl]-(5-fluoro-6-methoxy-pyridin-3-ylmethyl)-amine]",> 0.1 µM
